Experimental data published in ChEMBL document CHEMBL3991601, “The target landscape of clinical kinase drugs” (Science, 2017).
Calls of active or inactive are those of the source. Rule as the data show it, for most assays here: actives have a measured Kd and inactives only a lower limit.

How the values were obtained:
[1] = target: Ribosomal protein S6 kinase alpha-6 (Homo sapiens, UniProt Q9UK32)
[2] = target: T1, Serine/threonine-protein kinase TAO2 (Homo sapiens, UniProt Q9UL54)
T1 sequence (Q9UL54 whole entry): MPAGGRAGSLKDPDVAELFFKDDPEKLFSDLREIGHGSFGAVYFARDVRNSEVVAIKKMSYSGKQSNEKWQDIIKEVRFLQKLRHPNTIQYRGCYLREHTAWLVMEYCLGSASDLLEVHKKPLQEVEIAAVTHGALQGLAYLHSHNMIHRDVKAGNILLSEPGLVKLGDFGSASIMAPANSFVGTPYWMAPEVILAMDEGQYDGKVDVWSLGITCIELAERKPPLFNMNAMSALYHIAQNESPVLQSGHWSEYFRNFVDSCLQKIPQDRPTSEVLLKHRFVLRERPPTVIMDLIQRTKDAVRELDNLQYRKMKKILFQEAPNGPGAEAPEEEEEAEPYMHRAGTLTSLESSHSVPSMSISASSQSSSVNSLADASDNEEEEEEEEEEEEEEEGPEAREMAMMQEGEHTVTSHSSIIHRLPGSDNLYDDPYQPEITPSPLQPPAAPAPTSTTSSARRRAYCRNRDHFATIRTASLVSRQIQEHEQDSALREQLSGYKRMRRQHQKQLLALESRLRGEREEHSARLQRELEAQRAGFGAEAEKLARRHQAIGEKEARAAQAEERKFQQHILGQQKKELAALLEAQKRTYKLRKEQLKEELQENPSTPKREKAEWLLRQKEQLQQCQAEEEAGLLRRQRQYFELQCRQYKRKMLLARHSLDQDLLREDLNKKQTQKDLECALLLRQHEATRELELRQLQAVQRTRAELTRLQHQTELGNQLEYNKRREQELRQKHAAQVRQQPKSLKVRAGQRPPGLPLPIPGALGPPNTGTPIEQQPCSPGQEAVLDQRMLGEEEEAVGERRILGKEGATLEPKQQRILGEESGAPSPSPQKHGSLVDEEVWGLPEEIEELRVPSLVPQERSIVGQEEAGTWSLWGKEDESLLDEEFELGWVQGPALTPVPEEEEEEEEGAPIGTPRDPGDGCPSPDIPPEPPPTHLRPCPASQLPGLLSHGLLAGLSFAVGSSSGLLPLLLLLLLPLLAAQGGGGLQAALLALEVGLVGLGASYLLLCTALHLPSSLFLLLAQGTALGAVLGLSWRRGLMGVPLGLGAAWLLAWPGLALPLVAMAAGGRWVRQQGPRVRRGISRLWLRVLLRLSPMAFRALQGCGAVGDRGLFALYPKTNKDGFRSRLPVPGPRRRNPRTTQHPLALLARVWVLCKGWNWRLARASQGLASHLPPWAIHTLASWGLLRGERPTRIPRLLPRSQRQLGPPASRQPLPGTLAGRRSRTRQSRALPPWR

[3] = target: Mitogen-activated protein kinase 10 (Homo sapiens, UniProt P53779)
Sequence of Mitogen-activated protein kinase 10 (P53779 whole entry): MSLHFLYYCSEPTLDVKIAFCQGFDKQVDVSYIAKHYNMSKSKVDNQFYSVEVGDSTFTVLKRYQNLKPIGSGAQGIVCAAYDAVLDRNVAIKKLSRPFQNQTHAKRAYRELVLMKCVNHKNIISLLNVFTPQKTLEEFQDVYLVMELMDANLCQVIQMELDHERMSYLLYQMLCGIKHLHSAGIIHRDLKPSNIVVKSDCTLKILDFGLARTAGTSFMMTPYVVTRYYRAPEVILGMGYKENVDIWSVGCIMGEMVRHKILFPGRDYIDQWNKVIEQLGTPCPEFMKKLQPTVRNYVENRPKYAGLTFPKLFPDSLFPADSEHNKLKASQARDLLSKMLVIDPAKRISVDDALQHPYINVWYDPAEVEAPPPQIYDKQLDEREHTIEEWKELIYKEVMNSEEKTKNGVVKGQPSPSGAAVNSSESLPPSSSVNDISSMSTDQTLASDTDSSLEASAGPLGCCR

[4] = target: T2, Interleukin-1 receptor-associated kinase 4 (Homo sapiens, UniProt Q9NWZ3)
T2 sequence (Q9NWZ3 whole entry): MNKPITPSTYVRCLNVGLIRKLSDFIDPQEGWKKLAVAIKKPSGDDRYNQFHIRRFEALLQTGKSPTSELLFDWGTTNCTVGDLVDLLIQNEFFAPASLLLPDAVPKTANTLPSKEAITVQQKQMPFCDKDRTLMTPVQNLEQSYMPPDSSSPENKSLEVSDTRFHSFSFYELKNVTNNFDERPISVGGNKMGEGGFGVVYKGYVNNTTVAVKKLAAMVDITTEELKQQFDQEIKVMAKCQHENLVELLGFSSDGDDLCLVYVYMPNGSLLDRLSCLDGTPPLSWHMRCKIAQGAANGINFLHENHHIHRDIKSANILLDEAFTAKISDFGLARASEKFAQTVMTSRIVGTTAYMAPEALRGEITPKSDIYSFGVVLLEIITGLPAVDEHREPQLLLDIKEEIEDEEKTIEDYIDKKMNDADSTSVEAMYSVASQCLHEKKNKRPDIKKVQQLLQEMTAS

[5] = target: BMP-2-inducible protein kinase (Homo sapiens, UniProt Q9NSY1)
Sequence of BMP-2-inducible protein kinase (Q9NSY1 whole entry): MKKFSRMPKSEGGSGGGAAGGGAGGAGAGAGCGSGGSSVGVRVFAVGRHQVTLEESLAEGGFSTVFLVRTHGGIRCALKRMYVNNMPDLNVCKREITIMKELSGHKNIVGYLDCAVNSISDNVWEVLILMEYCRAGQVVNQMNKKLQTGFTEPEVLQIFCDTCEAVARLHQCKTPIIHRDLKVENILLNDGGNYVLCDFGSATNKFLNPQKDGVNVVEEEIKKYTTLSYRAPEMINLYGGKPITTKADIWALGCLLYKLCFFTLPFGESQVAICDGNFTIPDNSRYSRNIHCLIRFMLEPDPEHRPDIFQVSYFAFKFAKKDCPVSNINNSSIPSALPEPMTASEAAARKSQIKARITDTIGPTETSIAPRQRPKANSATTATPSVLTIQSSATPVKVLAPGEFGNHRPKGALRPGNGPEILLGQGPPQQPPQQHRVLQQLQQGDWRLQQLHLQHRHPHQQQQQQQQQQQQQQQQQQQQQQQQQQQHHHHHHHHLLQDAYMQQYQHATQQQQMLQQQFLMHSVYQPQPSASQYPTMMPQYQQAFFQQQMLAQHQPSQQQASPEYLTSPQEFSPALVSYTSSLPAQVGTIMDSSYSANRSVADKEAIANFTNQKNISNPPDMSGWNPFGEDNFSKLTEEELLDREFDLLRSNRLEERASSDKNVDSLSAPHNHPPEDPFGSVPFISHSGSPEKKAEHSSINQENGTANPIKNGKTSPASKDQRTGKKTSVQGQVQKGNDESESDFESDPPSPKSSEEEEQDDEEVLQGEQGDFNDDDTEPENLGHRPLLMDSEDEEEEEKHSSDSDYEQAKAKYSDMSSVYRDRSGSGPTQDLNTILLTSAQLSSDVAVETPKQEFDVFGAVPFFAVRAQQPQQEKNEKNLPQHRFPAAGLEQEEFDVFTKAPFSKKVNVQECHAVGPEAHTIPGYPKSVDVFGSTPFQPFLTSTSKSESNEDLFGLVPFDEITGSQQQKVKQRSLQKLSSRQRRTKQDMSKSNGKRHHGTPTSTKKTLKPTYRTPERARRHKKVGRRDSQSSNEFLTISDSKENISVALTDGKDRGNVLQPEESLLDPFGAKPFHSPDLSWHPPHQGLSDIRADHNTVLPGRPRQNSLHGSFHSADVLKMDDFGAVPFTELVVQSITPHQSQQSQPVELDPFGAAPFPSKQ

[6] = target: Mitogen-activated protein kinase kinase kinase 20 (Homo sapiens, UniProt Q9NYL2)
Sequence of Mitogen-activated protein kinase kinase kinase 20 (Q9NYL2 whole entry): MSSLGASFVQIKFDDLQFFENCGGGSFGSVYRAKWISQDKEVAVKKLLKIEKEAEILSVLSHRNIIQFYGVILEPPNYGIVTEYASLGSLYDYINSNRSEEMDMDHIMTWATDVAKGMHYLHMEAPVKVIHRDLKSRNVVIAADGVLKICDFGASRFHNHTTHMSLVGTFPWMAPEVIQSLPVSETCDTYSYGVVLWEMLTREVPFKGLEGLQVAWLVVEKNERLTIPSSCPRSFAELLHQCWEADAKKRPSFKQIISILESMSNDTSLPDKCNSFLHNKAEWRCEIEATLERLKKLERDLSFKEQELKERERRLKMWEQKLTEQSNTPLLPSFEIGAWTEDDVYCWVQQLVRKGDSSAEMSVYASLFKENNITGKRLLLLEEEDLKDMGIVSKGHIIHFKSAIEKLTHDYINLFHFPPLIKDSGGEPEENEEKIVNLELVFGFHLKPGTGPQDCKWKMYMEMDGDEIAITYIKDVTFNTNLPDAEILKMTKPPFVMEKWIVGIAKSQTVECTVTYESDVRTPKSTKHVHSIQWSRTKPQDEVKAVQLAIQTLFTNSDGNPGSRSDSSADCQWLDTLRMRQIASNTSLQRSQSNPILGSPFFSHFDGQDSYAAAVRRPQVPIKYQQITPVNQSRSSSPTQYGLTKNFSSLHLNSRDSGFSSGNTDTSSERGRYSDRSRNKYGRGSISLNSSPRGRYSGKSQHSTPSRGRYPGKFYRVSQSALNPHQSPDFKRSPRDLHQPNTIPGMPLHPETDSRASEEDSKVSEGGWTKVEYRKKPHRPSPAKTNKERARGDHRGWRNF

[7] = target: T3, Acyl-CoA dehydrogenase family member 10 (Homo sapiens, UniProt Q6JQN1)
T3 sequence (Q6JQN1 whole entry): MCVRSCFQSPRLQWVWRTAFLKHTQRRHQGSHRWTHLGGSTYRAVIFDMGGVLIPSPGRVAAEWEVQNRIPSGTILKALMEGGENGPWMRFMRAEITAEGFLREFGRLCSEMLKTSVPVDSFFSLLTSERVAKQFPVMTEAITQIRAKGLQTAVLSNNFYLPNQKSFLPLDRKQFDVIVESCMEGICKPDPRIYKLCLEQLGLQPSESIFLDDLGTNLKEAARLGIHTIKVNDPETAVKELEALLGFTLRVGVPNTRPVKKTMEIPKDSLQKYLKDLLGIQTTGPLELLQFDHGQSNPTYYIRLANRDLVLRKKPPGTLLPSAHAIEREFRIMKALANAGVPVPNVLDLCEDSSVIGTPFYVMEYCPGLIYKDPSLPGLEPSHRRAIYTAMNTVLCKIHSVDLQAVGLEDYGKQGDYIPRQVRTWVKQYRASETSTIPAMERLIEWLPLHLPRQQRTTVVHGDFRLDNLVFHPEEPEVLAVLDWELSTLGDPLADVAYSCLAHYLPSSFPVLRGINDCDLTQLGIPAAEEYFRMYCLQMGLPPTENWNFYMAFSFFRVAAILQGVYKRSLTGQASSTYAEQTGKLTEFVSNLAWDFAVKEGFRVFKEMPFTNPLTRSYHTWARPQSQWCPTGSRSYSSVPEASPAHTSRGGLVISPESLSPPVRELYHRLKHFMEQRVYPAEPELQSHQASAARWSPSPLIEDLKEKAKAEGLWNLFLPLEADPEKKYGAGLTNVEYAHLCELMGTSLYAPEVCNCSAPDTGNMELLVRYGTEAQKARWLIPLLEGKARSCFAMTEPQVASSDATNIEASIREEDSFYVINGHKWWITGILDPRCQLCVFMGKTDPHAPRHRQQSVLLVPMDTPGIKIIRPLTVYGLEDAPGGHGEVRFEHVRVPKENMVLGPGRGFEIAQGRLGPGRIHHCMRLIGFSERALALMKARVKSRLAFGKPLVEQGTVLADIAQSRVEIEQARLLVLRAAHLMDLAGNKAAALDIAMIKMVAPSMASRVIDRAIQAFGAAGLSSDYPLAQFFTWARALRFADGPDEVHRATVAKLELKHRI
Also: in the data inactive means no Kd found up to 30 µM.

Sequence of Ribosomal protein S6 kinase alpha-6 (Q9UK32 whole entry): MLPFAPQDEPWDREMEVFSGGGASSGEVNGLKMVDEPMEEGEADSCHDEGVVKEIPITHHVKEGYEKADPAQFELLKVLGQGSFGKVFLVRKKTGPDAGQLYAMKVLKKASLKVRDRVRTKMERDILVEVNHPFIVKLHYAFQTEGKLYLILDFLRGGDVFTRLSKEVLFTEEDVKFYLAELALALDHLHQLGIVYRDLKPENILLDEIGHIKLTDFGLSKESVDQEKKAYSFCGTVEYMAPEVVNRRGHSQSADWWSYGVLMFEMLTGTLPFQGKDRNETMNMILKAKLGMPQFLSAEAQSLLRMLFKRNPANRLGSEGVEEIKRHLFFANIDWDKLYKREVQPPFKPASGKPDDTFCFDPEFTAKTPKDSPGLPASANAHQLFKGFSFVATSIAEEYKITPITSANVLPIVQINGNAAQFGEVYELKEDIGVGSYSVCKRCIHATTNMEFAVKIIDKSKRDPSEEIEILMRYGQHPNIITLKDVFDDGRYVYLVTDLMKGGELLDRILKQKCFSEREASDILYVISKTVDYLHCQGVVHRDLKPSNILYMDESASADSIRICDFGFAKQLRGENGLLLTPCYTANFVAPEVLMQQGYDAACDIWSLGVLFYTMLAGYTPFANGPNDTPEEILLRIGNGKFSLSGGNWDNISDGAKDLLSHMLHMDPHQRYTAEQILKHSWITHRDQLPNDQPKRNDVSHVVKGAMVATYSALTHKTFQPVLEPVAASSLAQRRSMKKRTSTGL

| SMILES | Kd [1] | Kd [2] | Kd [3] | Kd [4] | Kd [5] | Kd [6] | Kd [7] |
| --- | --- | --- | --- | --- | --- | --- | --- |
| CC(C)Nc1cc(-c2c[nH]c(C(=O)N[C@H](CO)c3cccc(Cl)c3)c2)c(Cl)cn1 [ULIXERTINIB] | > 30 µM (inactive) | > 30 µM (inactive) | > 30 µM (inactive) | > 30 µM (inactive) | > 30 µM (inactive) | > 30 µM (inactive) | > 30 µM (inactive) |
| CC[C@@H]1C(=O)N(C)c2cnc(Nc3ccc(C(=O)N[C@H]4CC[C@H](N5CCN(CC6CC6)CC5)CC4)cc3OC)nc2N1C(C)C [VOLASERTIB] | > 30 µM (inactive) | > 30 µM (inactive) | > 30 µM (inactive) | > 30 µM (inactive) | > 30 µM (inactive) | > 30 µM (inactive) | > 30 µM (inactive) |
| CCn1c(=O)c(-c2cc[nH]n2)cc2c(C)nc(N)nc21 [VOXTALISIB] | > 30 µM (inactive) | > 30 µM (inactive) | > 30 µM (inactive) | > 30 µM (inactive) | > 30 µM (inactive) | > 30 µM (inactive) | > 30 µM (inactive) |

Results, then the compound that gave them:

| Kd [1] | Kd [2] | Kd [3] | Kd [4] | Kd [5] | Kd [6] | Kd [7] | SMILES |
| --- | --- | --- | --- | --- | --- | --- | --- |
| > 30 µM (inactive) | > 30 µM (inactive) | > 30 µM (inactive) | > 30 µM (inactive) | > 30 µM (inactive) | > 30 µM (inactive) | > 30 µM (inactive) | CN1N=C(N)c2cn([C@@H]3O[C@H](COP(=O)(O)O)[C@@H](O)[C@H]3O)c3ncnc1c23 [TRICIRIBINE PHOSPHATE] |
| > 30 µM (inactive) | > 30 µM (inactive) | > 30 µM (inactive) | > 30 µM (inactive) | > 30 µM (inactive) | 0.316 µM (active) | > 30 µM (inactive) | CCCS(=O)(=O)Nc1ccc(F)c(C(=O)c2c[nH]c3ncc(-c4ccc(Cl)cc4)cc23)c1F [VEMURAFENIB] |
| > 30 µM (inactive) | > 30 µM (inactive) | > 30 µM (inactive) | > 30 µM (inactive) | 0.02 µM (active) | > 30 µM (inactive) | > 30 µM (inactive) | O=C(Nc1ccc(-c2ccnc(Nc3ccc(N4CCOCC4)cc3)n2)cc1)C1CCCN1 (configuration not stated) [XL-019] |
